Reference: paper PMC5372560, “D-Amino Acid Position Influences the Anticancer Activity of Galaxamide Analogs: An Apoptotic Mechanism Study” (International Journal of Molecular Sciences, 2017)
In brackets after ≈: the same amount, converted by molar mass. Several values for one entry are separate records, joined by “and”; a condition that tells them apart may be missing. Identical values can stand only once. Where a SMILES comes first, the peptide text is derived from it. [ ]: non-standard residue; d: D form. NMeL = CN[C@@H](CC(C)C)C(=O)O

Experiments:
[1] = system: human breast adenocarcinoma cells (MDA-MB-435); format: cell-based; details: 48 h
Experimental: (§1) Human hepatocellular cells (HepG2), human breast cancer cells (MCF-7), human breast adenocarcinoma cells (MDA-MB-435) and a human cervical carcinoma cell line (Hela) were selected as our in vitro cancerous cell models. The cells were all cultured in DMEM medium containing 10% fetal bovine serum, 1% penicillin-streptomycin and antifungal agent, incubated at 37 °C with 5% CO2 and 90% humidity. The cytotoxicity of Galaxamide and its analogs on the four cancerous cells was evaluated using the MTT method. […] After that, 20 µL MTT reagents were added to each well and incubated between 3–5 h according to the nature of cells; the color intensity of the cell culture at 570 nm was measured using a microplate spectrophotometer. Finally, the cell viability was calculated accordingly. Note: […]

[2] = system: human breast cancer cells (MCF-7); format: cell-based; details: 48 h
Experimental: as §1

[3] = system: human cervical carcinoma cell line (Hela); format: cell-based; details: 48 h
Experimental: as §1

[4] = system: human hepatocellular cells (HepG2); format: cell-based; details: 48 h
Experimental: as §1

HepG2 cells [5] = assay: Cell cycle analysis by propidium iodide staining, flow cytometry; format: cell-based, human; details: 48 h, PI staining
Experimental: In particular, HepG2 cells were exposed to Galaxamide, Analog-4 and Analog-6 with concentrations of 0, 5, 10 and 15 µg/mL for 48 h. Generally, treatment with Galaxamide, Analog-4 and -6 all caused changes in the cell cycle of HepG2 cells, mainly in the sub-G1 stage, where a subdiploid peak was detected, indicating their apoptotic effects on HepG2 cells.
(§2) HepG2 cells were seeded in 6-well tissue culture plates at a concentration of 1 × 10^5 cells/well. Galaxamide and its analogs with a concentration of 0, 5, 10 and 15 µg/mL were added to the cell cultures and incubated for 48 h. After that, 5 µL Annexin V-fluorescein isothiocyanate (FITC) and 5 µL of PI were added for dual staining of the cells and analyzed by FACScan flow cytometry. Cell cycle and apoptotic cells were determined by counting the FITC-positive and PI-negative fractions.

HepG2 cells [6] = assay: Annexin V-FITC / PI dual staining, flow cytometry (apoptosis); format: cell-based, human; details: 48 h
Experimental: To further study the apoptotic mechanism of Analog-6, the Annexin V-fluorescein isothiocyanate (FITC) and propidium iodide (PI) dual staining method was used. Briefly, HepG2 cells were treated with 0, 5, 10 and 15 µg/mL Analog-6 for 48 h. Then, cells were washed several times with PBS and stained by dual staining of two fluorescent dyes, Annexin V-FITC and PI, and analyzed by flow cytometry. Results are shown in Figure 5, where HepG2 cells exposed to Galaxamide were used as the control. Note that Q1, Q2, Q3 and Q4 in the figure represent four quadrants of necrotic cells, late apoptotic cells, normal cells and early apoptotic cells, respectively.
as §2

HepG2 cells [7] = assay: Hoechst 33342 staining, nuclear morphology; format: cell-based, human; details: HepG2, increasing concentration up to 15 µg/mL, 48 h, fluorescence microscope
Experimental: We then investigated the effect of Galaxamide and Analog-6 on the cell morphology and nuclear integrity. HepG2 cells were treated with an increasing concentration of Analog-6 for 48 h and then stained by Hoechst 33342 (a DNA fluorescent dye). The effect of Galaxamide on HepG2 cells was used as a control. Noting that Hoechst 33342 is a DNA fluorescent dye, the fluorescently-stained DNA presents a blue color under the fluorescence microscope.
HepG2 cells were seeded in 6-well tissue culture plates at a concentration of 1 × 10^5 cells/well. Galaxamide and its analogs with a concentration of 0, 5, 10 and 15 µg/mL were added to the cell cultures and incubated for 48 h. After that, cells were fixed with 3.7% of paraformaldehyde for 10 min and washed three times with PBS. Then, Hoechst 33342 was added for cell staining, then visualized using a fluorescent microscope.

[8] = system: human hepatocellular carcinoma HepG2; details: in vitro, HepG2 cell line; cited from earlier work
Excerpt: (§3) In our initial work, a novel cyclic-pentapeptide named Galaxamide was isolated from a marine algae Galaxaura filamentosa collected from Xisha Island in the South China Sea. Galaxamide is a cyclic-pentapeptide composed of five L-leucines, including two N-methylated ones. N-methylated amino acid is an important component endowing the anticancer potential to the cyclopeptides.

[9] = system: human renal cell carcinoma GRC-1; details: in vitro, GRC-1 cell line; cited from earlier work
Excerpt: as §3

[10] = system: human normal liver cell line L02; details: cited from earlier work
Excerpt: In our previous work, we synthesized several Galaxamide analogs and tested their cytotoxicity on a normal cell line (human normal liver cell line L02) and a broad range of cancerous cell lines in vitro.

cleaved caspase-3 = assay: Western blot, cleaved caspase-3 expression; format: cell-based, human; details: HepG2, 15 µg/mL, 48 h
Experimental: (§4) There are two major pathways involved in cells apoptosis: the mitochondria-mediated intrinsic pathway and the death receptor-mediated extrinsic pathway. To elucidate the possible mechanism of the apoptotic effects of Analog-6, Western blot experiments were performed. HepG2 cells were treated with 0, 5, 10 and 15 µg/mL Analog-6 for 48 h, and then expression of cleaved caspase-3, caspase-9 and poly(ADP-ribose) polymerase (PARP) was quantified, results are shown in Figure 6.
(§5) Target proteins were first extracted using Radio-Immunoprecipitation Assay (RIPA) buffer and quantified by the Bradford method. Then, proteins were transferred to a polyvinylidene difluoride (PVDF) membrane, and the membrane was blocked with 5% non-fat milk for 1 h and incubated with a primary antibody (Cell Signaling Technology, Danvers, MA, USA, rabbit monoclonal antibody, 1:1000) at 4 °C overnight. After that, the membrane was washed two times with TBST buffer (Tris-buffered saline with 0.1% Tween-20) and incubated with a secondary antibody (goat-anti-rabbit horseradish peroxidase (HRP)-conjugated 1:15,000) for 1 h under room temperature. Finally, the membrane was washed three times with TBST, and the intensity of the specific immunoreactive bands was detected by enhanced chemiluminescence.

caspase-9 = assay: Western blot, caspase-9 expression; format: cell-based, human; details: HepG2, 15 µg/mL, 48 h
Experimental: as §4, §5

[11] = system: poly(ADP-ribose) polymerase (PARP); assay: Western blot, cleaved PARP expression; format: cell-based, human; details: HepG2, 15 µg/mL, 48 h
Experimental: as §4, §5

SMILES	IC50 (µg/mL) in Different Cell Lines, MDA-MB-435 [1]	IC50 (µg/mL) in Different Cell Lines, MCF-7 [2]	IC50 (µg/mL) in Different Cell Lines, Hela [3]	IC50 (µg/mL) in Different Cell Lines, HepG2 [4]	G0/G1 cells (HepG2 cells [5]; HepG2, 5 µg/mL)	G2/M cells (HepG2 cells [5]; HepG2, 5 µg/mL)	S cells (HepG2 cells [5]; HepG2, 5 µg/mL)	Sub-G1 cells (HepG2 cells [5]; HepG2, 5 µg/mL)	G0/G1 cells (HepG2 cells [5]; HepG2, 10 µg/mL)	G2/M cells (HepG2 cells [5]; HepG2, 10 µg/mL)	S cells (HepG2 cells [5]; HepG2, 10 µg/mL)	Sub-G1 cells (HepG2 cells [5]; HepG2, 10 µg/mL)	G0/G1 cells (HepG2 cells [5]; HepG2, 15 µg/mL)	G2/M cells (HepG2 cells [5]; HepG2, 15 µg/mL)	S cells (HepG2 cells [5]; HepG2, 15 µg/mL)	Sub-G1 cells (HepG2 cells [5]; HepG2, 15 µg/mL)	further results
CC(C)C[C@@H]1NC(=O)[C@@H](CC(C)C)N(C)C(=O)[C@H](CC(C)C)NC(=O)[C@H](CC(C)C)N(C)C(=O)[C@H](Cc2ccccc2)NC1=O [Analog-5, Cyclo(Me-D-Leu-Leu-Phe-Me-Leu-Leu]	20.43 ± 0.23 µg/mL (≈ 32.5 µM)	15.21 ± 0.29 µg/mL (≈ 24.2 µM)	7.4 ± 0.33 µg/mL (≈ 11.8 µM)	10.72 ± 0.32 µg/mL (≈ 17.1 µM)													
CC(C)C[C@@H]1NC(=O)[C@H](CC(C)C)N(C)C(=O)[C@H](CC(C)C)NC(=O)[C@H](CC(C)C)N(C)C(=O)[C@@H](Cc2ccccc2)NC1=O [Analog-2, Cyclo(Me-Leu-Leu-D-Phe-Me-Leu-Leu)]	9.5 ± 0.32 µg/mL (≈ 15.1 µM)	9.64 ± 0.27 µg/mL (≈ 15.4 µM)	4.95 ± 0.18 µg/mL (≈ 7.88 µM)	4.56 ± 0.22 µg/mL (≈ 7.26 µM)													
CC(C)C[C@@H]1NC(=O)[C@H](CC(C)C)N(C)C(=O)[C@H](CC(C)C)NC(=O)[C@H](CC(C)C)N(C)C(=O)[C@H](Cc2ccccc2)NC1=O [Analog-1, Cyclo(Me-Leu-Leu-Phe-Me-Leu-Leu)]	9.76 ± 0.18 µg/mL (≈ 15.5 µM)	13.03 ± 0.33 µg/mL (≈ 20.8 µM)	6.85 ± 0.26 µg/mL (≈ 10.9 µM)	5.85 ± 0.13 µg/mL (≈ 9.32 µM)													
CC(C)C[C@@H]1NC(=O)[C@H](CC(C)C)N(C)C(=O)[C@@H](CC(C)C)NC(=O)[C@H](CC(C)C)N(C)C(=O)[C@H](Cc2ccccc2)NC1=O [Analog-4, Cyclo(Me-Leu-Leu-Phe-Me-Leu-D-Leu)]	7.67 ± 0.18 µg/mL (≈ 12.2 µM)	8.62 ± 0.26 µg/mL (≈ 13.7 µM)	4.2 ± 0.32 µg/mL (≈ 6.69 µM)	7.2 ± 0.15 µg/mL (≈ 11.5 µM)	70.5%	9.33%	20.2%	1.78%	64.2%	12.9%	22.9%	7.1%	67.6%	5.91%	26.5%	35.5%	
CC(C)C[C@@H]1NC(=O)[C@H](CC(C)C)N(C)C(=O)[C@H](CC(C)C)NC(=O)[C@H](CC(C)C)N(C)C(=O)[C@H](CC(C)C)NC1=O [Galaxamide] (cyclo(LL[NMeL]L[NMeL]))					71.2%	9.18%	19.6%	1.30%	73.7%	9.03%	17.2%	8.81%	70.8%	9.46%	19.8%	13.1%	Q4, early apoptotic cells (HepG2 cells [6]; HepG2, 5 µg/mL): 1.8%; Q4, early apoptotic cells (HepG2 cells [6]; HepG2, 10 µg/mL): 10.6%; Q4, early apoptotic cells (HepG2 cells [6]; HepG2, 15 µg/mL): 12.1%; nuclei morphology after Hoechst 33342 staining (HepG2 cells [7]): slight shrinking of nuclei; IC50, antiproliferative activity, HepG2 [8]: 4.63 µg/mL (≈ 7.8 µM); IC50, antiproliferative activity, GRC-1 [9]: 4.26 µg/mL (≈ 7.17 µM); IC50, cytotoxicity on normal L02 [10]: > 40 µg/mL
CC(C)C[C@@H]1NC(=O)[C@H](CC(C)C)N(C)C(=O)[C@H](CC(C)C)NC(=O)[C@@H](CC(C)C)N(C)C(=O)[C@H](Cc2ccccc2)NC1=O [Analog-3, Cyclo(Me-Leu-Leu-Phe-Me-D-Leu-Leu)]	12.6 ± 0.29 µg/mL (≈ 20.1 µM)	18.16 ± 0.33 µg/mL (≈ 28.9 µM)	4.39 ± 0.26 µg/mL (≈ 6.99 µM)	7.71 ± 0.11 µg/mL (≈ 12.3 µM)													
CC(C)C[C@@H]1NC(=O)[C@H](CC(C)C)N(C)C(=O)[C@H](Cc2ccccc2)NC(=O)[C@@H](CC(C)C)NC(=O)[C@H](CC(C)C)N(C)C1=O [Analog-6, Cyclo(Me-Leu-D-Leu-Phe-Me-Leu-Leu)]	6.76 ± 0.22 µg/mL (≈ 10.8 µM)	8.15 ± 0.18 µg/mL (≈ 13 µM)	3.42 ± 0.25 µg/mL (≈ 5.45 µM)	4.1 ± 0.20 µg/mL (≈ 6.53 µM)	61.5%	21.6%	16.9%	3.30%	56.8%	14.4%	28.8%	5.36%	88.6%	4.22%	7.18%	67.9% and 68%	Q4, early apoptotic cells (HepG2 cells [6]; HepG2, 5 µg/mL): 7.3%; Q4, early apoptotic cells (HepG2 cells [6]; HepG2, 10 µg/mL): 16.9%; Q4, early apoptotic cells (HepG2 cells [6]; HepG2, 15 µg/mL): 49.4% and ~50%; increased fold of cleaved caspase-3 expression (cleaved caspase-3): 3.4 fold; increased fold of caspase-9 expression (caspase-9): 3.3 fold; increased fold of PARP expression [11]: 6.8 fold; nuclei morphology after Hoechst 33342 staining (HepG2 cells [7]): severely damaged
